Source: US9125768B2, “Hygiene tissue comprising a microbe-inhibiting composition” (SCA HYGIENE PRODUCTS AB, priority 2006, dated 2015)

How the values were obtained:
Candida albicans = test: Test 3: growth of Candida albicans in extracellular product of Ess-1 combined with additive, visual turbidity; assay type: cell-based; conditions: additive 50 mM combined with supernatant from Ess-1, pH adjusted to pKa of the acid, 20 hours 37° C.
Procedure: Ess-1 was grown to stationary phase in dMRSs broth (MRS broth without addition of sodium acetate). The bacterial culture was centrifuged to pellet the cells and sterile filtered using a 0,22 μm filter (MILLIPORE filter, Bedford, USA) whereupon the supernatant comprising the extracellular product was obtained. […] Wells containing strong growth of Candida in pure dMRSs-broth was graduated as five, while wells with no visual growth were graduated as zero.

[1] = system: Candida albicans (C. albicans 702); test: Test 1: growth of Candida albicans in extracellular product of LB 931 with additives, micro titre plate, visual turbidity; assay type: cell-based; conditions: additive 50 mM in combination with extracellular product of LB 931, pH 3.4±0.2, 37° C. 24 hrs
Procedure: The purpose of this test was to determine whether selected additives affect the growth of Candida albicans and if an improved growth inhibition can be achieved when they are added to the extracellular products of Lactobacillus plantarum, LB 931. The additives used in this test were ascorbic acid, citric acid, phenylalanine, acetic acid, propionic acid and sodium propionate.
A clinical isolate of Candida albicans (designated C. albicans 702) was used as test strain. It was isolated from the vagina of a person with vaginal candidiasis.
As control pure dMRSs broth (MRS broth without addition of sodium acetate) was used. A specified volume was transferred to wells of a micro titre plate and was let to air dry (45° C. minimum of 20 hrs).
Cultures of LB 931 grown in dMRSs broth were centrifuged to pellet the cells and sterile filtered using a 0,22 μm filter (MILLIPORE filter, Bedford, USA) in order to obtain the LB 931 supernatant com prising the LB 931 extracell War product. […]
The test was blinded so that there could be no preconceived opinions colouring the results. The inhibition of Candida was evaluated and graduated, by two persons using a template, on a scale from five to zero based on visual observations of turbidity with a calculated mean value being presented. […]

Structure (SMILES): O=C1O[C@H]([C@@H](O)CO)C(O)=C1O [ascorbic acid]
- inhibition of Candida albicans (Candida albicans): increased inhibition

Structure (SMILES): CCC(=O)O [propionic acid]
- growth inhibiting effect on Candida (growth graded five to zero by turbidity) [1]: no growth at all
